Paper PMC12299463, “Cladolosides of Groups S and T: Triterpene Glycosides from the Sea Cucumber Cladolabes schmeltzii with Unique Sulfation; Human Breast Cancer Cytotoxicity and QSAR” (Marine Drugs, 2025)
“And” between values parts separate entries of the source, which are not always exact repeats. Equal entries are not always repeated. Structures can show the parent of a compound that is named as a salt. Where two headings read alike, the source gives them in different places.

What was measured:
human erythrocytes = experiment: Hemolytic activity against human erythrocytes; format: cell-based; details: for ED50, Erythrocytes (hemolytic activity): 1 h at 37 °C
Description: A total of 450 g of human blood (B(III) Rh+) was used to obtain erythrocytes by centrifuging three times for 5 min with phosphate-buffered saline (PBS) (pH 7.4) at 4 °C on a centrifuge LABOFUGE 400R (Heraeus, Hanau, Germany). Ice-cold PBS (pH 7.4) was used for resuspension of erythrocyte residue to a final optical density of 1.5 at 700 nm. Then, 20 µL of tested compound solutions or control (cucumarioside A0-1 [15]) were added to 180 µL of erythrocyte suspension in V-bottom 96-well plates and incubated for 1 h at 37 °C. After centrifugation (900 g, 10 min, laboratory centrifuge LMC-3000 (Biosan, Riga, Latvia)), 100 µL of supernatant was transferred into new flat plates. The values of erythrocyte lysis were measured on microplate photometer Multiskan FC (Thermo Fisher Scientific, Waltham, MA, USA) at λ = 570 nm as hemoglobin concentration in supernatant. […] All the experiments were carried out in triple repetitions, p < 0.05.

[1] = system: MCF-10A non-tumor mammary epithelial cell line; experiment: in vitro; format: cell-based, human
[2] = system: MCF-7 human breast cancer cells; experiment: cells; format: cell-based; details: for Selectivity Index (SI), MCF-7: ratio of IC50 for healthy (MCF-10A) and MCF-7 cells;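 as to all read-outs here: IC50 values, including those behind the selectivity ratio, derive from formazan absorbance at 570 nm, tested in triplicate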
[3] = system: T-47D human breast cancer cells; experiment: cells; format: cell-based; details: for Selectivity Index (SI), T-47D: ratio of IC50 for healthy (MCF-10A) and T-47D cells;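 as to all read-outs here: cell viability read as absorbance of formazan dye at 570 nm, each experiment run in triplicate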
[4] = system: MDA-MB-231 triple-negative breast cancer cells; experiment: cells; format: cell-based, human; details: for Selectivity Index (SI), MDA-MB-231: ratio of IC50 for healthy (MCF-10A) and MDA-MB-231 cells
[5] = MTT assay, MCF-10A, read-out: Cytotoxicity, IC50, MCF-10A
[6] = MTT assay, MCF-7, read-out: Cytotoxicity, IC50, MCF-7
[7] = MTT assay, T-47D, read-out: Cytotoxicity, IC50, T-47D
[8] = MTT assay, MDA-MB-231, read-out: Cytotoxicity, IC50, MDA-MB-231

Row | SMILES | Hemolytic (membranolytic) activity, in words (human erythrocytes) | IC50 [1, 5] [µM] | IC50 [2, 6] [µM] | IC50 [3, 7] [µM] | IC50 [4, 8] [µM] | Selectivity Index (SI), MDA-MB-231 [4] | ED50, Erythrocytes (hemolytic activity) (human erythrocytes) | Selectivity Index (SI), MCF-7 [2] | Selectivity Index (SI), T-47D [3] | other results
1 | C=C(C)CC[C@@H](OC(C)=O)[C@]1(C)OC(=O)C23CC=C4[C@@H](CC[C@H]5C(C)(C)[C@@H](O[C@@H]6OC[C@@H](O[C@@H]7OC[C@@H](O)[C@H](O[C@@H]8O[C@H](CO)[C@@H](O)[C@H](OC)[C@H]8O)[C@H]7O)[C@H](O)[C@H]6O[C@@H]6O[C@H](C)[C@@H](O[C@@H]7OC[C@@H](O)[C@H](O[C@@H]8O[C@H](CO)[C@@H](O)[C@H](OC)[C@H]8O)[C@H]7O)[C@H](O)[C@H]6O)CC[C@]45C)[C@]2(C)C[C@H](OC(C)=O)[C@@H]31 (stereo partly drawn) [Cladoloside G (25), cladoloside G] | high activity | > 20 | > 20 | > 20 | 3.95 ± 0.38 | >5.06 | – | – | – | ED50, Erythrocytes (hemolytic activity) (human erythrocytes; listed as G (25)): 0.35 ± 0.04 µM; ED50, Erythrocytes (hemolytic activity) (human erythrocytes; listed as cladoloside G (25)): 0.35 µM
2 | CO[C@@H]1[C@@H](O)[C@H](O[C@@H]2[C@@H](O)[C@H](O[C@@H]3CO[C@@H](O[C@H]4CC[C@]5(C)C6=CCC78C(=O)O[C@@](C)([C@@H](CCC(C)C)OC(C)=O)[C@H]7[C@@H](OC(C)=O)C[C@@]8(C)[C@@H]6CC[C@H]5C4(C)C)[C@H](O[C@@H]4O[C@H](C)[C@@H](O[C@@H]5OC[C@@H](O)[C@H](O[C@@H]6O[C@H](CO)[C@@H](O)[C@H](OC)[C@H]6O)[C@H]5O)[C@H](O)[C@H]4O)[C@H]3O)O[C@H](C)[C@H]2O)O[C@H](CO)[C@H]1O (stereo partly drawn) [Cladoloside H1 (26), Cladoloside H1] | – | > 20 | 15.9 ± 1.14 | 13.2 ± 0.72 | 2.47 ± 0.32 | – | 0.21 ± 0.02 µM | – | – | Toxicity to normal mammary cells MCF-10A, in words ([1]; MCF-10A): non-toxic
3 | CO[C@@H]1[C@@H](O)[C@H](O[C@@H]2[C@@H](O)[C@H](O[C@H]3[C@H](O)[C@@H](O)[C@H](O[C@H]4[C@H](O[C@H]5CC[C@]6(C)C7=CCC89C(=O)O[C@@](C)([C@@H](CCC(C)C)OC(C)=O)[C@H]8[C@@H](OC(C)=O)C[C@@]9(C)[C@@H]7CC[C@H]6C5(C)C)OC[C@@H](O[C@@H]5O[C@H](CO)[C@@H](O)[C@H](O)[C@H]5O)[C@@H]4O)O[C@@H]3C)OC[C@H]2O)O[C@H](COS(=O)(=O)[O-])[C@H]1O.[Na+] (stereo partly drawn) [Cladoloside I1 (28), cladoloside I1] | – | 13.4 ± 0.92 | 11.2 ± 1.02 | 9.91 ± 0.68 | 3.02 ± 0.28 | 4.45 | – | 1.20 | 1.36 | ED50, Erythrocytes (hemolytic activity) (human erythrocytes; listed as I1 (28)): 1.72 ± 0.10 µM; ED50, Erythrocytes (hemolytic activity) (human erythrocytes; listed as cladoloside I1 (28)): 1.72 µM
4 | C=C(C)CCC[C@]1(C)OC(=O)C23CC=C4[C@@H](CC[C@H]5C(C)(C)[C@@H](O[C@@H]6OC[C@@H](O[C@@H]7O[C@H](CO)[C@@H](O)[C@H](O[C@@H]8O[C@H](COS(=O)(=O)[O-])[C@@H](O)[C@H](OC)[C@H]8O)[C@H]7O)[C@H](O)[C@H]6O[C@@H]6O[C@H](C)[C@@H](O[C@@H]7OC[C@@H](O)[C@H](O)[C@H]7O)[C@H](O)[C@H]6O)CC[C@]45C)[C@]2(C)CC(=O)[C@@H]31.[Na+] (stereo partly drawn) [Cladoloside J1 (30), Cladoloside J1] | – | > 20 | > 20 | > 20 | 6.18 ± 0.54 | >3.24 | 1.10 ± 0.10 µM | – | – | –
5 | CO[C@@H]1[C@@H](O)[C@H](O[C@@H]2[C@@H](O)[C@H](O[C@@H]3CO[C@@H](O[C@H]4CC[C@]5(C)C6=CCC78C(=O)O[C@@](C)([C@@H](CCC(C)C)OC(C)=O)[C@H]7[C@@H](OC(C)=O)C[C@@]8(C)[C@@H]6CC[C@H]5C4(C)C)[C@H](O[C@@H]4O[C@H](C)[C@@H](O[C@@H]5OC[C@@H](O)[C@H](O[C@@H]6O[C@H](COS(=O)(=O)[O-])[C@@H](O)[C@H](OC)[C@H]6O)[C@H]5O)[C@H](O)[C@H]4O)[C@H]3O)O[C@H](CO)[C@H]2O)O[C@H](CO)[C@H]1O.[Na+] (stereo partly drawn) [Cladoloside K1 (31), cladoloside K1] | – | > 20 | > 20 | 12.1 ± 1 | 5.83 ± 0.41 | – | – | – | >1.65 | ED50, Erythrocytes (hemolytic activity) (human erythrocytes; listed as K1 (31)): 0.31 ± 0.02 µM; ED50, Erythrocytes (hemolytic activity) (human erythrocytes; listed as cladoloside K1 (31)): 0.31 µM
6 | C=C(C)CC[C@@H](O)[C@]1(C)OC(=O)C23CC=C4[C@@H](CC[C@H]5C(C)(C)[C@@H](O[C@@H]6OC[C@@H](O[C@@H]7O[C@H](CO)[C@@H](O)[C@H](O[C@@H]8O[C@H](CO)[C@@H](O)[C@H](OC)[C@H]8O)[C@H]7O)[C@H](O)[C@H]6O[C@@H]6O[C@H](C)[C@@H](O[C@@H]7OC[C@@H](O)[C@H](O[C@@H]8O[C@H](COS(=O)(=O)[O-])[C@@H](O)[C@H](OC)[C@H]8O)[C@H]7O)[C@H](O)[C@H]6O)CC[C@]45C)[C@]2(C)C[C@H](OC(C)=O)[C@@H]31.[Na+] (stereo partly drawn) [Cladoloside K2 (32), cladoloside K2] | – | 14.5 ± 1.07 | > 20 | 14.1 ± 0.91 | 6.81 ± 0.73 | – | – | – | 1.03 | ED50, Erythrocytes (hemolytic activity) (human erythrocytes; listed as K2 (32)): 4.63 ± 0.41 µM; ED50, Erythrocytes (hemolytic activity) (human erythrocytes; listed as cladoloside K2 (32)): 4.63 µM
7 | C=C(C)CCC[C@]1(C)OC(=O)C23CC=C4[C@@H](CC[C@H]5C(C)(C)[C@@H](O[C@@H]6OC[C@@H](O[C@@H]7O[C@H](CO)[C@@H](O)[C@H](O[C@@H]8O[C@H](COS(=O)(=O)[O-])[C@@H](O)[C@H](OC)[C@H]8O)[C@H]7O)[C@H](O)[C@H]6O[C@@H]6O[C@H](C)[C@@H](O[C@@H]7OC[C@@H](O)[C@H](O[C@@H]8O[C@H](CO)[C@@H](O)[C@H](OC)[C@H]8O)[C@H]7O)[C@H](O)[C@H]6O)CC[C@]45C)[C@]2(C)CC(=O)[C@@H]31.[Na+] (stereo partly drawn) [Cladoloside L1 (33), Cladoloside L1] | strong hemolytics | 17.9 ± 1.12 | 12.7 ± 1.01 | 9.03 ± 0.81 | 13.4 ± 1.08 | 1.34 | 0.20 ± 0.02 µM | 1.41 | 1.98 | –
8 | C=C(C)CCC[C@]1(C)OC(=O)C23CC=C4[C@@H](CC[C@H]5C(C)(C)[C@@H](O[C@@H]6OC[C@@H](O[C@@H]7O[C@H](CO)[C@@H](O)[C@H](O[C@@H]8O[C@H](CO)[C@@H](O)[C@H](OC)[C@H]8O)[C@H]7O)[C@H](O)[C@H]6O[C@@H]6O[C@H](C)[C@@H](O[C@@H]7O[C@H](CO)[C@@H](O)[C@H](O[C@@H]8O[C@H](CO)[C@@H](O)[C@H](OC)[C@H]8O)[C@H]7O)[C@H](O)[C@H]6O)CC[C@]45C)[C@]2(C)CC(=O)[C@@H]31 (stereo partly drawn) [Cladoloside M1 (35), cladoloside M1] | – | 9.81 ± 0.86 | > 20 | 17.1 ± 1.52 | 5.05 ± 0.38 | 1.94 | 0.08 ± 0.01 µM | – | 0.57 | Hemolytic (membranolytic) activity, in words (human erythrocytes; listed as M1 (35)): strong hemolytics; Hemolytic (membranolytic) activity, in words (human erythrocytes; listed as cladoloside M1 (35)): most active compound
9 | C=C(C)CCC[C@]1(C)OC(=O)C23CC=C4[C@@H](CC[C@H]5C(C)(C)[C@@H](O[C@@H]6OC[C@@H](O[C@@H]7O[C@H](CO)[C@@H](O)[C@H](O[C@@H]8O[C@H](CO)[C@@H](O)[C@H](OC)[C@H]8O)[C@H]7O)[C@H](O)[C@H]6O[C@@H]6O[C@H](C)[C@@H](O[C@@H]7OC[C@@H](O)[C@H](O[C@@H]8O[C@H](CO)[C@@H](O)[C@H](O)[C@H]8O)[C@H]7O)[C@H](O)[C@H]6O)CC[C@]45C)[C@]2(C)CC(=O)[C@@H]31 (stereo partly drawn) [Cladoloside P2 (41), Cladoloside P2] | strong hemolytics | 11.1 ± 0.74 | 16.3 ± 1.03 | 10.6 ± 0.61 | 6.92 ± 0.44 | 1.60 | 0.17 ± 0.02 µM | 0.68 | 1.05 | –
10 | CO[C@@H]1[C@@H](O)[C@H](O[C@@H]2[C@@H](O)[C@H](O[C@@H]3CO[C@@H](O[C@H]4CC[C@]5(C)C6=CCC78C(=O)O[C@@](C)([C@@H](CCC(C)C)OC(C)=O)[C@H]7[C@@H](OC(C)=O)C[C@@]8(C)[C@@H]6CC[C@H]5C4(C)C)[C@H](O[C@@H]4O[C@H](C)[C@@H](O[C@@H]5OC[C@@H](O)[C@H](O[C@@H]6O[C@H](CO)[C@@H](O)[C@H](OS(=O)(=O)O)[C@H]6O)[C@H]5O)[C@H](O)[C@H]4O)[C@H]3O)O[C@H](CO)[C@H]2O)O[C@H](CO)[C@H]1O (stereo partly drawn) [Cladoloside T1 (4), 3β-O-{3-O-sodium sulfate-β-D-glucopyranosyl-(1→3)-β-D-xylopyranosyl-(1→4)-β-D-quinovopyranosyl-(1→2)-[3-O-methyl-β-D-glucopyranosyl-(1→3)-β-D-glucopyranosyl-(1→4)]-β-D-xylopyranosyl}-16S,22R-diacetoxyholost-9-en] | – | – | – | – | – | – | 0.12 µM and 0.12 ± 0.02 µM | – | – | IC50 [1]: 8.41 ± 0.4 µM; IC50 [2]: 7.78 ± 0.62 µM; IC50 [3]: 7.41 ± 0.69 µM; IC50 [4]: 2.94 ± 0.21 µM
